Results taken from patent US20090142416A1, “Methods for the treatment of HIV and other viruses” (priority 2003, published 2009).
Entries after “also recorded” stand apart in the source; their conditions may differ. Like-named read-outs stand apart in the source and are kept apart here.

Columns and labels:
[1] = system: murine leukemia virus (MULV); details: for mice that died during the treatment period / survival rate at 21 days: 12 mice per group; for mice that died during the treatment period: days 6 and 14; for survival rate at 21 days / post-treatment CD4/CD8 ratio: 72 feet; for survival rate at 21 days: 2 hours daily; for post-treatment CD4/CD8 ratio / post-treatment CD4 count (FACS): 2 hours, versus post-treatment control; for post-treatment CD4/CD8 ratio: six days a week, three weeks; for overall effect relative to control conditions: 72 ft for 2 hours, 6 days per week; for hypocellular medullary sinuses of lymph nodes: H&E histology after three-week treatment; for spleen size / lymph node size: after three-week treatment; for spleen size: N2 and air versus control and oxygen; for lymph node size: area = length times width of cut node; for post-treatment CD4 count (FACS): orbital blood, 72 feet of seawater, six days a week for three weeks; for lymph node architecture: after 21 days of treatment; for physical condition / grooming: versus control and oxygen groups
Procedure: FIG. 5A represents the cross section of an actual lymph node removed from a mouse that took part in a study of the present method. […] As a result of the observations on divers in Puerto Rico, it was decided to first test this concept in murine leukemia virus-MULV mice exposed to increased pressures of nitrogen at a depth of 72 feet for 2 hours 6 days per week for 3 weeks. […] The murine model, AKR-J strain of mice which are viremic from birth, were used to test the hypotheses. The animal model was chosen because of its striking similarities to human AIDS. […] The mice were separated at random into four groups of 12 mice in each group. Group 1 was control. Group 2 was exposed to air at sea level pressure. Group 3 was exposed to N2 and Group 4 to O2 under the following conditions. The mice were placed in a small (5.88 cubic feet), temperature controlled hyperbaric chamber and compressed with Air, N2+6.5% O2 or 100% O2. Groups were taken separately to a pressure of 72 feet of seawater. The animals reached maximum treatment pressure in 6-7 minutes and remained at this pressure for 2 hours. They were then returned to normal barometric pressure at a rate of one foot per minute (72 minutes). This process was performed each day for six days a week for three weeks. The control group of animals (Group 1) was exposed to normal surface conditions for the same period of time.
Cytological and histological measurements. Pre- and post-flow cytometry (FACS) analysis was performed on samples of orbital blood from 10 animals in each group labeled with anti-mouse CD4/CD8 fluorescence markers. Animals were anesthetized using methoxyflurane and blood was collected with a heparinized Pasteur pipette. Lymphocytes were stained with anti CD4-PE and anti CD8-FITC (Pharmingen) for 15 minutes. Erythrocytes were hemolyzed in lysis solution (Becton Dickinson) for 10 minutes, washed with PBS/azide solution, centrifuged and the supernatant was discarded. The pellet was fixed with 1% formalin in PBS, and stored at 4° C. until cytometry (Becton Dickinson FACS Scan; San Jose, Calif.). At the end of the three-week treatment period, blood samples were obtained and the mice were sacrificed. The lymph nodes, spleen, thymus, liver and brain tissue were collected immediately placed in 10% formalin. Following fixation and routine paraffin processing, 4 μm sections of lymph nodes were obtained after cutting randomly selected nodes through the center parallel to the long axis of the node. The slides were stained with hematoxylin and eosin (H&E) and reviewed by a pathologist that was blinded to knowledge of animal treatment groups. The presence of secondary follicles and paracortical expansion were quantitated for each animal as a percentage of lymph nodes. As medullary sinuses were not present in every lymph node profile, the presence of medullary sinus hypocellularity was quantitated as a percentage of lymph nodes which contained sinuses. In addition the approximate surface area of the cut node was computed from the product of the length and width in its maximum dimensions. The remaining tissues were examined qualitatively for pathological changes.
FIG. 6 is bar chart showing the average size of lymph nodes taken from the mice of different groups in the study discussed above. The lymph nodes were taken from the cervical, thoracic, and abdominal regions and fixed in 10% formalin. The nodes were then sectioned through the center of the long axis, and area was computed as the product of length times width.

[2] = cited from earlier work
[3] = listed as Mixtures with enriched nitrogen

In the case of `O=O` [O2, oxygen, reference compound], the “mice that died during the treatment period” value [1] is reported as “Two”, the “mice that died during the treatment period” value ([1]; listed as oxygen) is reported as “two” and the “survival rate at 21 days” value [1] is reported as 83%. For the same compound, the “post-treatment CD4/CD8 ratio” value [1] was “significantly lower”, the “post-treatment CD4/CD8 ratio” value ([1]; listed as hyperbaric oxygen) was “significantly decreased” and the “post-treatment CD4/CD8 ratio” value ([1]; listed as oxygen) was “significantly lower”. The “overall effect relative to control conditions” value ([1]; listed as Oxygen) was “significant negative effect”, the “overall effect relative to control conditions” value ([1]; listed as hyperbaric oxygen) was “no beneficial effect” and the “overall effect relative to control conditions” value ([1]; listed as oxygen) was “fared worse than the control group”. For the same compound, the “hypocellular medullary sinuses of lymph nodes” value [1] was “significantly more hypocellular sinuses”, the spleen size [1] was “much bigger” and the lymph node size [1] was “much bigger”. The “post-treatment CD4 count (FACS)” value ([1]; listed as hyperbaric oxygen) was “significantly decreased”.

In the case of `N#N` [N2, nitrogen], the “survival rate at 21 days” value [1] is reported as 100%, the “post-treatment CD4/CD8 ratio” value [1] is reported as “significantly higher” and the “post-treatment CD4/CD8 ratio” value [1, 3] is reported as “increased”. For the same compound, the “hypocellular medullary sinuses of lymph nodes” value [1] was “significantly more hypocellular sinuses were present in the control group and the O2 group than in the N2 and Air groups; also recorded: significant differences in sinus cellularity”, the lymph node architecture [1] was “improved lymph node architecture” and the lymph node architecture [1, 3] was “preserved”. For the same compound, the spleen size [1] was “smaller by about one third”, the lymph node size [1] was “smaller” and the lymph node size ([1]; listed as hyperbaric N2) was “significantly attenuated the lymphadenopathy”. For the same compound, the lymph node size ([1]; listed as nitrogen) was “significant reduction”, the “number of nodes with paracortical expansion” value ([1]; lymph node histology) was “reduction” and the “number of nodes with secondary follicles” value ([1]; lymph node histology) was “reduction”. For the same compound, the “number of sinuses with histiocytes” value ([1]; lymph node histology) was “increase”, the “post-treatment CD4 count (FACS)” value [1] was “increased and were significantly higher than post-treatment CD4 count in control animals” and the “post-treatment CD4 count (FACS)” value ([1]; listed as hyperbaric N2) was “improved CD4 counts”. For the same compound, the “physical condition / grooming” value [1] was “better grooming”, the “physical condition / grooming” value [1, 3] was “improved” and the “physical condition / grooming” value ([1]; listed as nitrogen) was “appeared physically more healthy; also recorded: improved physical condition”.

In the case of `[N-]=[N+]=O` [nitrous oxide], the anesthetic effect ([2]; 90% N2O and 10% O2 at atmospheric pressure (760 mmHg)) is given as “many subjects do not even lose consciousness” and the anesthetic effect ([2]; 1520 mmHg or 2 atmospheres absolute (1368 mmHg N2O+125 mmHg oxygen)) is given as “deep anesthesia”.
